Laboratory results: PubChem BioAssay AID1324 (NMMLSC, 2008)
The source made the active and inactive calls. No rule for the calls is given here.

Molecular target: glutathione S-transferase (GST-GSH binding)
Test: GST–glutathione interaction disruption – biochemical, multiplex beads, flow cytometry, HPSMTB buffer, profiling panel (AID 1324);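 also: glutathione beads loaded with GST-green fluorescent protein and no fluorescent Bim peptide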
Settings: multiplex bead flow cytometry, MCF

Structure (SMILES)	EC50
COc1cc2[nH]c(=S)nc(NCCc3ccc(S(N)(=O)=O)cc3)c2cc1OC	3.63 µM
CCOC(=O)c1ccc(Nc2nc(C(=O)OCC)nc3ccccc23)cc1	2.38 µM
O=C1c2ccccc2-c2onc3ccc(NCc4ccco4)c1c23	inactive
CCOC(=O)c1c2c3c(cccc3[nH]c1=O)C(=O)c1ccccc1-2	inactive

Same assay, conditions: multiplex bead flow cytometry, MCF, stronger effect = higher value, concentration not given here

Structure (SMILES)	percent span inhibition
COC(=O)c1c(C(=O)OC)c2cccc3cc(-c4ccccc4)c4ccc1c4n32	inactive
O=C(Nc1ccncc1)c1cc2ccccc2o1	inactive
Cc1noc(C)c1CN1C(=O)NC(Cc2ccccc2)(Cc2ccccc2)C1=O	inactive
COCCn1nnnc1CN(Cc1ccco1)Cc1cc2cc3c(cc2[nH]c1=O)OCO3	inactive
CCCCOc1ccc(Cc2c(Cl)nc(SC)nc2N2CCOCC2)cc1	inactive
Cc1ccc(N=Cc2c(O)n(-c3ccc4c(c3)OCO4)c(=O)c3ccccc23)cc1	inactive
Cc1ccc(CNc2ccc3c(c2)OCO3)c(C)c1	inactive
Cc1nc2ccccc2n1CSc1ccccc1	inactive
Cc1ccc2nc3c(cc(C(N)=S)c(=N)n3CCCOC(C)C)c(=O)n2c1	inactive
CCN1C(=O)/C(=C/C=C2\C=CN(CC)c3ccccc32)SC1=S	inactive
CCN1CCN(c2ccc(NC(=O)c3ccc4c(c3)[nH]c(=O)n4Cc3ccc(OC)cc3)cc2)CC1	inactive
CCCn1c(SCC(=O)Nc2ccccc2-c2ccccc2)nnc1-c1ccoc1C	inactive
COc1cc2[nH]c(=S)nc(NCCCOC(C)C)c2cc1OC	inactive
CCOC(=O)c1cc2c(=O)n3ccccc3nc2n(Cc2ccco2)c1=NC(=O)c1ccccc1OC	inactive
Fc1ccc(/C=C2\CCCC3=C2NC(=S)NC3c2ccc(F)cc2)cc1 (stereo not given)	inactive
O=C1c2ccccc2C(=O)c2cc(S(=O)(=O)Nc3ccccc3)ccc21	inactive
CNC(CC(=O)c1ccc([N+](=O)[O-])cc1)C(Cl)(Cl)Cl (stereo not given)	inactive
CS(=O)(=O)NN1C(=O)c2ccccc2NC1c1cccc2cccnc12 (stereo not given)	inactive
CCOc1cc(S(=O)(=O)N2CCCCC2)ccc1F	inactive
O=C(O)c1ccc(NS(=O)(=O)c2ccc3c(c2)C(=O)c2ccccc2C3=O)cc1	inactive
Cc1ccc(C)n1-c1cccc(C(=O)O)c1	inactive
CCn1c(C)nc2cc(C(=O)N/N=C/c3ccc(O)c(O)c3O)ccc21	inactive
CCC(=O)N(CC)C1=C(O)c2ccccc2C(=O)C1=O	inactive

Structure (SMILES)	percent span inhibition
c1ccc(Nc2nc(-c3ccncc3)cs2)cc1	inactive
COc1ccc(OCCNC(=O)c2ccccc2OCC(=O)N2CCCCC2)cc1	inactive
CCOc1ccccc1NC(=O)CSc1nnc2ccc(-c3cccnc3)nn12	inactive
CCCn1c(N2CCN(C)CC2)nc2c1c(=O)[nH]c(=O)n2C	inactive
CCOc1cc(NC(=S)NC)c(OCC)cc1NC(=O)c1ccc(OC)cc1	inactive
CCSc1ncnc2sc(C)c(C)c12	inactive
CCC(CC)C(=O)Nc1cccc(S(=O)(=O)c2cccc(NC(=O)C(CC)CC)c2)c1	inactive
COc1ccc2nc(NC(=O)c3ccc(-c4cccc([N+](=O)[O-])c4)o3)sc2c1	inactive
Cc1cc(OCc2cn3cccnc3n2)ccc1Cl	inactive
CCCCOC(=O)c1nc(Cl)c(Cl)c(N)c1Cl	inactive
Fc1cccc(Nc2nc(-c3ccncc3)nc3ccccc23)c1	inactive
O=C(CCl)Nc1cccc2ncccc12	inactive
O=C(N/N=C/c1ccncc1)c1cccc(NC(=O)c2ccccc2Cl)c1	inactive
COc1cccc2c1C(=O)C=C(C)C2=O	inactive
CC(=O)NC1=C(NC2CCS(=O)(=O)C2)C(=O)c2ccccc2C1=O (stereo not given)	inactive
COc1ccc(CC(=O)Nc2ccc(-c3nc4cc(C)ccc4o3)c(O)c2)cc1OC	inactive
O=C(CSc1nnc(-c2ccco2)n1Cc1ccccc1)c1ccccc1	inactive
CCN1/C(=C/c2ccc3cc(C)ccc3[n+]2CC)Sc2cc(C)c(C)cc21	inactive
COc1cc(N=c2ssnc2Cl)cc(OC)c1OC	inactive
O=C(COc1ccccc1)N1CCN(c2ncnc3c2cnn3-c2ccccc2)CC1	inactive
COc1cc(CNc2ccc(N3CCCC3)cc2)cc(Cl)c1OC	inactive
Cc1ccc(-n2nc(C)c(C(=O)O)n2)c(C)c1	inactive
CC1(C)Cc2c(ccc3ccccc23)/C(=C/C(=O)N2CCCCC2)N1	inactive
